Experimental findings from patent US12060347B2 (BRISTOL-MYERS SQUIBB COMPANY, priority 2016, dated 2024) are described below.

This experiment concerns the target T1, human PAR4 (Homo sapiens, UniProt Q96RI0).
T1 construct: expressed in transfected cells; host or cells: HEK293 PAR4 Clone 1.2A (BMS Arctic ID 383940)
T1 sequence (Q96RI0 18-385): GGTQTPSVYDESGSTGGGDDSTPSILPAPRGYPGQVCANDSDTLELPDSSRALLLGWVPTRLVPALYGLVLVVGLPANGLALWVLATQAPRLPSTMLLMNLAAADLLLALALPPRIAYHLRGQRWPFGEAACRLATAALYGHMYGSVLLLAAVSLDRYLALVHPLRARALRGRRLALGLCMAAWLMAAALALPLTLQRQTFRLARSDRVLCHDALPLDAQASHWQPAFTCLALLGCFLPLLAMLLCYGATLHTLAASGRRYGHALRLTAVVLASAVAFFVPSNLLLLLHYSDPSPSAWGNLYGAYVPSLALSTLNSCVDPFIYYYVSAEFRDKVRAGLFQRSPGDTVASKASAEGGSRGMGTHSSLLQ
The experiment is described as follows: PAR4 FLIPR assay: antagonism of agonist-peptide-induced calcium mobilization in PAR4-expressing HEK293 cells. In kind it is cell-based. The conditions noted are these: H-Ala-Phe(4-F)-[…]NH2-induced intracellular calcium mobilization, 11-point curves.

Turning to `COc1cnc2c(-c3nc4cc(F)c(O[C@@H](C)[C@@H](C)OC(=O)Nc5ccc(C(=O)NCCO)nc5)cc4s3)cc(C)cc2n1` (stereo in doubt) [Example 392, (2R,3S)-3-((5-fluoro-2-(2-methoxy-7-methylquinoxalin-5-yl)benzo[d]thiazol-6-yl)oxy)butan-2-yl (6-((2-hydroxyethyl)carbamoyl)pyridin-3-yl)carbamate], the IC50 – broadly, the midpoint of a concentration-inhibition curve – stood at 3.1 nM.

For the compound `COc1cncc(NC(=O)O[C@H](C)[C@H](C)Oc2cc3sc(-c4cc(Cl)cc5cc(OC)cnc45)nc3c(Cl)c2F)c1` [Example 803, (2R,3S)-3-((4-chloro-2-(6-chloro-3-methoxyquinolin-8-yl)-5-fluorobenzo[d]thiazol-6-yl)oxy)butan-2-yl (5-methoxypyridin-3-yl)carbamate], the concentration for half-maximal inhibition (IC50) stood at 3.5 nM.

In the case of `COc1cnc2c(-c3nc4c(F)c(F)c(OC)cc4s3)cc(C)cc2n1` [Example 278, 4,5-difluoro-6-methoxy-2-(2-methoxy-7-methylquinoxalin-5-yl)benzo[d]thiazole], the IC50 worked out at 4.6 nM.

As to `COc1cnc2c(-c3nc4cc(F)c(O[C@@H](C)[C@@H](C)OC(=O)Nc5ccc(C(=O)N6CC[C@H](CO)C6)nc5)cc4s3)cc(C)cc2n1` [Example 482, (2R,3S)-3-((5-fluoro-2-(2-methoxy-7-methylquinoxalin-5-yl)benzo[d]thiazol-6-yl)oxy)butan-2-yl (6-((S)-3-(hydroxymethyl)pyrrolidine-1-carbonyl)pyridin-3-yl)carbamate], the concentration for half-maximal inhibition (IC50) turned out to be 0.6 nM.

As for `COCc1cnc2c(-c3nc4c(CO)cc(OC)cc4s3)cc(C)cc2n1` [Example 155, (6-methoxy-2-(2-(methoxymethyl)-7-methylquinoxalin-5-yl)benzo[d]thiazol-4-yl) methanol], the IC50 was 0.8 nM.

As for `COc1cnc2c(-c3nc4c(C)cc(OC)cc4s3)cc(Cl)cc2c1` [Example 626, 2-(6-chloro-3-methoxyquinolin-8-yl)-6-methoxy-4-methylbenzo[d]thiazole], the IC50 was 7.2 nM.

`COc1cnc2c(-c3nc4cc(F)c(O[C@@H](C)[C@@H](C)OC(=O)Nc5cncc(F)c5)nc4s3)cc(C)cc2n1` [Example 714, (2R,3S)-3-((6-fluoro-2-(2-methoxy-7-methylquinoxalin-5-yl)thiazolo[5,4-b]pyridin-5-yl)oxy)butan-2-yl (5-fluoropyridin-3-yl)carbamate]: the half-inhibitory concentration (IC50) stood at 1.2 nM.

Turning to `COc1cnc2c(-c3nc4cc(F)c(O[C@@H](C)[C@@H](C)OC(=O)Nc5ccc(CC(C)(C)O)nc5)nc4s3)cc(C)cc2n1` [Example 718, (2R,3S)-3-((6-fluoro-2-(2-methoxy-7-methylquinoxalin-5-yl)thiazolo[5,4-b]pyridin-5-yl)oxy)butan-2-yl (6-(2-hydroxy-2-methylpropyl)pyridin-3-yl)carbamate], the IC50 amounted to 1.7 nM.

Consider `COc1cnc2c(-c3nc4cc(F)c(OC[C@@H](C)OC(=O)Nc5cnc(O[C@@H](C)CO)nc5)cc4s3)cc(C)cc2n1` [Example 558, (R)-1-((5-fluoro-2-(2-methoxy-7-methylquinoxalin-5-yl)benzo[d]thiazol-6-yl)oxy)propan-2-yl (2-(((S)-1-hydroxypropan-2-yl)oxy)pyrimidin-5-yl)carbamate], for which the IC50 worked out at 1.5 nM.

Turning to `COCc1cnc2c(-c3nc4c(s3)C(O)C(C)(C)CC4)cc(C)cc2n1` (stereo not shown) [Example 145, 2-(2-(methoxymethyl)-7-methylquinoxalin-5-yl)-6,6-dimethyl-4,5,6,7-tetrahydrobenzo[d] thiazol-7-ol], the IC50 was 4.5 nM.

`COc1cc(C(O)C2(c3ccccc3)CCC2)c2nc(-c3cc(C)cc4nc(OC)cnc34)sc2c1` (stereo not shown) [Example 665, (6-methoxy-2-(2-methoxy-7-methylquinoxalin-5-yl)benzo[d]thiazol-4-yl)(1-phenylcyclobutyl)methanol]: the half-inhibitory concentration (IC50) worked out at 1.7 nM.

As for `COc1cnc2c(-c3nc4cc(F)c(O[C@@H](C)[C@@H](C)OC(=O)Nc5cccnc5)nc4s3)cc(C)cc2n1` [Example 709, (2R,3S)-3-((6-fluoro-2-(2-methoxy-7-methylquinoxalin-5-yl)thiazolo[5,4-b]pyridin-5-yl)oxy)butan-2-yl pyridin-3-ylcarbamate], the half-maximal inhibitory concentration (IC50) came to 0.4 nM.

As to `COc1cnc2c(-c3nc4cc(F)c(OCC(COCc5ccccc5)OC(=O)Nc5cccnc5)cc4s3)cc(C)cc2n1` (stereo not shown) [Example 380, 1-(benzyloxy)-3-((5-fluoro-2-(2-methoxy-7-methylquinoxalin-5-yl)benzo[d]thiazol-6-yl)oxy)propan-2-yl pyridin-3-ylcarbamate], the IC50 was 2.3 nM.

`COCc1cnc2c(-c3nc4c(C)c(C)c(OCC(C)(C)O)cc4s3)cc(C)cc2n1` [Example 319, 1-((2-(2-(methoxymethyl)-7-methylquinoxalin-5-yl)-4,5-dimethylbenzo[d]thiazol-6-yl)oxy)-2-methylpropan-2-ol]: the half-maximal inhibitory concentration (IC50) amounted to 7.3 nM.

As for `COCc1cnc2c(-c3nc4c(C)cc(OCCNS(=O)(=O)c5ccc(F)cc5)cc4s3)cc(C)cc2n1` [Example 29, 4-fluoro-N-(2-((2-(2-(methoxymethyl)-7-methylquinoxalin-5-yl)-4-methylbenzo[d]thiazol-6-yl)oxy)ethyl)benzenesulfonamide], the half-maximal inhibitory concentration (IC50) amounted to 1.4 nM.

`COc1cnc2c(-c3nc4c(Cl)c(F)c(OCc5coc(N)n5)cc4s3)cc(C)cc2n1` [Example 623, 4-(((4-chloro-5-fluoro-2-(2-methoxy-7-methylquinoxalin-5-yl)benzo[d]thiazol-6-yl)oxy)methyl)oxazol-2-amine]: the concentration for half-maximal inhibition (IC50) worked out at 320 nM.

In the case of `COc1cnc2c(-c3nc4cc(F)c(OC[C@@H](C)OC(=O)Nc5cnc(OCCC(C)(C)O)nc5)nc4s3)cc(C)cc2n1` [Example 702, (R)-1-((6-fluoro-2-(2-methoxy-7-methylquinoxalin-5-yl)thiazolo[5,4-b]pyridin-5-yl)oxy) propan-2-yl (2-(3-hydroxy-3-methylbutoxy)pyrimidin-5-yl)carbamate], the IC50 was determined as 4.3 nM.

In the case of `COc1cc(C)c2nc(-c3cc(C)cc4nc(CN(C)C)cnc34)sc2c1` [Example 188, 1-(5-(6-methoxy-4-methylbenzo[d]thiazol-2-yl)-7-methylquinoxalin-2-yl)-N,N-dimethylmethanamine], the IC50 worked out at 580 nM.

Take `COc1cnc2c(-c3nc4c(Cl)c(F)c(OCCOC(=O)Nc5cnc6c(c5)cc(C)n6C)cc4s3)cc(C)cc2n1` [Example 367, 2-((4-chloro-5-fluoro-2-(2-methoxy-7-methylquinoxalin-5-yl)benzo[d]thiazol-6-yl)oxy)ethyl (1,2-dimethyl-1H-pyrrolo[2,3-b]pyridin-5-yl)carbamate]: the half-inhibitory concentration (IC50) turned out to be 12 nM.

Take `COc1cnc2c(-c3nc4c(C)cc(OC[C@@H](C)OC(=O)Nc5cnc(Cl)nc5)nc4s3)cc(C)cc2n1` [Example 736, (R)-1-((2-(2-methoxy-7-methylquinoxalin-5-yl)-7-methylthiazolo[5,4-b]pyridin-5-yl)oxy) propan-2-yl (2-chloropyrimidin-5-yl)carbamate]: the IC50 came to 5.3 nM.

For `COc1cnc2c(-c3nc4cc(F)c(O[C@@H](C)[C@@H](C)OC(=O)Nc5ccc(C(N)=O)nc5)cc4s3)cc(Cl)cc2n1` [Example 833, (2R,3S)-3-((2-(7-chloro-2-methoxyquinoxalin-5-yl)-5-fluorobenzo[d]thiazol-6-yl)oxy) butan-2-yl (6-carbamoylpyridin-3-yl)carbamate], the IC50 was determined as 1.6 nM.

On to `COCc1cnc2c(-c3nc4c(C)cc(OCCNS(=O)(=O)c5ccc(F)cc5)cc4s3)cc(C#N)cc2n1` [Example 232, N-(2-((2-(7-cyano-2-(methoxymethyl)quinoxalin-5-yl)-4-methylbenzo[d]thiazol-6-yl)oxy)ethyl)-4-fluorobenzenesulfonamide], for which the half-inhibitory concentration (IC50) turned out to be 0.7 nM.

Regarding `COCc1cnc2c(-c3nc4c(C(O)c5ccncc5)cc(OC)cc4s3)cc(C)cc2n1` (stereo not shown) [Example 172, (6-methoxy-2-(2-(methoxymethyl)-7-methylquinoxalin-5-yl)benzo[d]thiazol-4-yl)(pyridin-4-yl)methanol], the 50% inhibitory concentration (IC50) came out at 1.7 nM.

As for `COc1cc(OC)c2nc(-c3cc(C)cc4nc(OC(F)F)cnc34)sc2c1` [Example 55, 2-(2-(difluoromethoxy)-7-methylquinoxalin-5-yl)-4,6-dimethoxybenzo[d]thiazole], the concentration for half-maximal inhibition (IC50) is 14 nM.

`COc1cnc2c(-c3nc4c(Cl)c(F)c(OC[C@@H](C)OC(=O)Nc5cccnc5)cc4s3)cc(C)cc2n1` [Example 372, (R)-1-((4-chloro-5-fluoro-2-(2-methoxy-7-methylquinoxalin-5-yl)benzo[d]thiazol-6-yl)oxy)propan-2-yl pyridin-3-ylcarbamate]: the IC50 was determined as 1.3 nM.

Consider `Cc1cc(-c2nc3c(C)cc(OCCNS(=O)(=O)c4ccccc4)cc3s2)c2ncc(OC(F)F)nc2c1` [Example 73, N-(2-(2-(2-(difluoromethoxy)-7-methylquinoxalin-5-yl)-4-methylbenzo[d]thiazol-6-yloxy)ethyl)benzenesulfonamide], for which the half-maximal inhibitory concentration (IC50) was 2.3 nM.

On to `COc1cnc2c(-c3nc4cc(F)c(OC[C@@H](C)OC(=O)Nc5ccc(C#N)nc5)cc4s3)cc(C#N)cc2n1` [Example 818, (R)-1-((2-(7-cyano-2-methoxyquinoxalin-5-yl)-5-fluorobenzo[d]thiazol-6-yl)oxy)propan-2-yl (6-cyanopyridin-3-yl)carbamate], for which the IC50 is 1.8 nM.

For `COc1cnc2c(-c3nc4cc(F)c(OC[C@@H](C)OC(=O)Nc5ccc(C(=O)NC[C@@H](C)O)nc5)cc4s3)cc(C)cc2n1` [Example 449, (R)-1-((5-fluoro-2-(2-methoxy-7-methylquinoxalin-5-yl)benzo[d]thiazol-6-yl)oxy)propan-2-yl (6-(((R)-2-hydroxypropyl)carbamoyl)pyridin-3-yl)carbamate], the half-inhibitory concentration (IC50) was 0.3 nM.
